According to ChEMBL document CHEMBL1127973, “A comparative molecular field analysis derived model of the binding of taxol analogues to microtubules” (Bioorg Med Chem Lett, 1994):

Each molecule was assayed against Tubulin (Homo sapiens) (UniProt P68371+Q9H4B7+P0DPH7+P68366+Q13509+Q71U36+P04350+Q3ZCM7+P07437+P68363+Q9BQE3+Q6PEY2+Q13885+Q9BVA1+Q9BUF5) (assay: Binding affinity to microtubules, activity expressed as ID50 of compound/ID50 of paclitaxel).
Type: protein-complex assay

First: CC(=O)O[C@H]1C(=O)[C@@]2(C)[C@H]([C@H](OC(=O)c3ccccc3)[C@]3(O)C[C@H](OC(=O)[C@H](O)[C@@H](NC(=O)/C(C)=N/NC(=O)OC(C)(C)C)c4ccccc4)C(C)=C1C3(C)C)[C@]1(OC(C)=O)CO[C@@H]1C[C@@H]2O
Second: CC(=O)O[C@H]1C(=O)[C@@]2(C)[C@H]([C@H](OC(=O)c3ccccc3)[C@]3(O)C[C@H](OC(=O)[C@H](O)[C@@H](NC(=O)/C(C)=N/O)c4ccccc4)C(C)=C1C3(C)C)[C@]1(OC(C)=O)CO[C@@H]1C[C@@H]2O
The ID50 ratio of the first is higher: 14.1 for the first, 3.5 for the second.

First: CC(=O)O[C@H]1C(=O)[C@@]2(C)[C@H]([C@H](OC(=O)c3ccccc3)[C@]3(O)C[C@H](OC(=O)[C@H](O)[C@@H](NC(=O)c4cccc(N(C)C)c4)c4ccccc4)C(C)=C1C3(C)C)[C@]1(OC(C)=O)CO[C@@H]1C[C@@H]2O
Second: CC(=O)O[C@H]1C(=O)[C@@]2(C)[C@H]([C@H](OC(=O)c3ccccc3)[C@]3(O)C[C@H](OC(=O)[C@@H](O)[C@H](NC(=O)c4ccccc4)c4ccccc4)C(C)=C1C3(C)C)[C@]1(OC(C)=O)CO[C@@H]1C[C@@H]2O
The ID50 ratio of the first is lower: 1.4 for the first, 4.5 for the second.

First: C/C=C(\C)C(=O)N[C@@H](c1ccccc1)[C@@H](O)C(=O)O[C@H]1C[C@@]2(O)[C@@H](OC(=O)c3ccccc3)[C@@H]3[C@]4(OC(C)=O)CO[C@@H]4C[C@H](O)[C@@]3(C)C(=O)[C@H](OC(C)=O)C(=C1C)C2(C)C
Second: C/C=C(\C)C(=O)N[C@@H](c1ccccc1)[C@@H](O)C(=O)O[C@H]1C[C@@]2(O)[C@@H](OC(=O)c3ccccc3)[C@@H]3[C@]4(OC(C)=O)CO[C@@H]4C[C@H](O)[C@@]3(C)C(=O)[C@H](O)C(=C1C)C2(C)C
The ID50 ratio of the first is lower: 1.5 for the first, 5 for the second.

First: CC(=O)O[C@H]1C(=O)[C@@]2(C)[C@H]([C@H](OC(=O)c3ccccc3)[C@]3(O)C[C@H](OC(=O)[C@H](O)[C@@H](NC(=O)c4c(F)c(F)c(N=[N+]=[N-])c(F)c4F)c4ccccc4)C(C)=C1C3(C)C)[C@]1(OC(C)=O)CO[C@@H]1C[C@@H]2O
Second: CC(=O)O[C@H]1C(=O)[C@]2(C)[C@@H](OC(=O)c3c(F)c(F)c(N=[N+]=[N-])c(F)c3F)C[C@H]3OC[C@@]3(OC(C)=O)[C@H]2[C@H](OC(=O)c2ccccc2)[C@]2(O)C[C@H](OC(=O)[C@H](O)[C@@H](NC(=O)c3ccccc3)c3ccccc3)C(C)=C1C2(C)C
The ID50 ratio of the first is lower: 4.6 for the first, greater than 22.4 for the second.

`CC(=O)O[C@@]12CO[C@@H]1C[C@H](O)[C@@]1(C)C(=O)CC3=C(C)[C@@H](OC(=O)[C@H](O)[C@@H](NC(=O)c4ccccc4)c4ccccc4)C[C@@](O)([C@@H](OC(=O)c4ccccc4)[C@H]21)C3(C)C` (stereo in doubt; 19) and `CC(=O)O[C@@]12CO[C@@H]1C[C@H](O)[C@@]1(C)C(=O)[C@H](O)C3=C(C)[C@@H](OC(=O)C[C@@H](O)[C@@H](NC(=O)c4ccccc4)c4ccccc4)C[C@@](O)([C@@H](OC(=O)c4ccccc4)[C@H]21)C3(C)C` cannot be ordered by ID50 ratio: 106 for the first, greater than 27 for the second.

`CC(=O)O[C@H]1C(=O)[C@@]2(C)[C@H]([C@H](OC(=O)c3ccccc3)[C@]3(O)C[C@H](OC(=O)[C@H](O)[C@@H](NC(=O)c4ccccc4)c4ccco4)C(C)=C1C3(C)C)[C@]1(OC(C)=O)CO[C@@H]1C[C@@H]2O` and `CC(=O)O[C@H]1C(=O)[C@@]2(C)[C@H]([C@H](OC(=O)c3ccccc3)[C@]3(O)C[C@H](OC(=O)[C@H](O)[C@@H](NC(=O)c4ccccc4)c4ccoc4)C(C)=C1C3(C)C)[C@]1(OC(C)=O)CO[C@@H]1C[C@@H]2O` are the same in ID50 ratio: 0.9 for the first, 0.9 for the second.

Going from `CC(=O)O[C@H]1C(=O)[C@@]2(C)[C@H]([C@H](OC(=O)c3ccccc3)[C@]3(O)C[C@H](OC(=O)[C@H](O)[C@@H](NC(=O)c4ccccc4)c4ccc(Cl)c(Cl)c4)C(C)=C1C3(C)C)[C@]1(OC(C)=O)CO[C@@H]1C[C@@H]2O` to `CC(=O)O[C@H]1C(=O)[C@@]2(C)[C@H]([C@H](OC(=O)c3ccccc3)[C@]3(O)C[C@H](OC(=O)[C@H](O)[C@@H](NC(=O)c4ccc(Cl)c(Cl)c4)c4ccccc4)C(C)=C1C3(C)C)[C@]1(OC(C)=O)CO[C@@H]1C[C@@H]2O`, the ID50 ratio falls from 7.1 to 2.1.

Going from `C/C=C(\C)C(=O)N[C@@H](c1ccccc1)[C@@H](O)C(=O)O[C@H]1C[C@@]2(O)[C@@H](OC(=O)c3ccccc3)[C@@H]3[C@]4(OC(C)=O)CO[C@@H]4C[C@H](OC(=O)[C@H](O)[C@@H](O)[C@H](O)CO)[C@@]3(C)C(=O)[C@H](OC(C)=O)C(=C1C)C2(C)C` to `CC(=O)O[C@H]1C(=O)[C@@]2(C)[C@H]([C@H](OC(=O)c3ccccc3)[C@]3(O)C[C@H](OC(=O)[C@H](O)[C@@H](NC(=O)CC(C)C)c4ccccc4)C(C)=C1C3(C)C)[C@]1(OC(C)=O)CO[C@@H]1C[C@@H]2O`, the ID50 ratio rises from 0.5 to 1.2.

First: CC(=O)O[C@H]1C(=O)[C@]2(C)[C@@H](OC(C)=O)C[C@H]3OC[C@@]3(OC(C)=O)[C@H]2[C@H](OC(=O)c2ccccc2)[C@]2(O)C[C@H](OC(=O)[C@H](O)[C@@H](NC(=O)c3ccccc3)c3ccccc3)C(C)=C1C2(C)C
Second: CC(=O)O[C@H]1C(=O)[C@]2(C)[C@@H](OC(=O)c3ccc(N=[N+]=[N-])cc3)C[C@H]3OC[C@@]3(OC(C)=O)[C@H]2[C@H](OC(=O)c2ccccc2)[C@]2(O)C[C@H](OC(=O)[C@H](O)[C@@H](NC(=O)c3ccccc3)c3ccccc3)C(C)=C1C2(C)C
The ID50 ratio of the first is lower: 2 for the first, 21.4 for the second.

Compared with `CC(=O)O[C@@]12CO[C@@H]1C[C@H](O)[C@@]1(C)C(=O)[C@H](O)C3=C(C)[C@@H](OC(=O)C[C@@H](O)[C@@H](NC(=O)OC(C)(C)C)c4ccccc4)C[C@@](O)([C@@H](OC(=O)c4ccccc4)[C@H]21)C3(C)C`, `CC(=O)O[C@@]12CO[C@@H]1C[C@H](O)[C@@]1(C)C(=O)[C@H](O)C3=C(C)[C@@H](OC(=O)[C@H](O)[C@@H](NC(=O)OC(C)(C)C)c4ccccc4)C[C@@](O)([C@@H](OC(=O)c4ccccc4)[C@H]21)C3(C)C` (stereo in doubt; 40) is lower in ID50 ratio: greater than 27 for the first, 0.5 for the second.

Going from `CC(=O)O[C@H]1C(=O)[C@@]2(C)[C@H]([C@H](OC(=O)c3ccccc3)[C@]3(O)C[C@H](OC(=O)[C@@H](O)Cc4ccccc4)C(C)=C1C3(C)C)[C@]1(OC(C)=O)CO[C@@H]1C[C@@H]2O` to `CC(=O)O[C@H]1C(=O)[C@@]2(C)[C@H]([C@H](OC(=O)c3ccccc3)[C@]3(O)C[C@H](OC(=O)[C@H](O)Cc4ccccc4)C(C)=C1C3(C)C)[C@]1(OC(C)=O)CO[C@@H]1C[C@@H]2O`, the ID50 ratio falls from 15.7 to 13.2.

First: CC(=O)O[C@@]12CO[C@@H]1C[C@H](O)[C@@]1(C)C(=O)[C@H](O)C3=C(C)[C@@H](OC(=O)C[C@H](NC(=O)OC(C)(C)C)c4ccccc4)C[C@@](O)([C@@H](OC(=O)c4ccccc4)[C@H]21)C3(C)C
Second: CC(=O)O[C@H]1C(=O)[C@@]2(C)[C@H]([C@H](OC(=O)c3ccccc3)[C@]3(O)C[C@H](OC(=O)C[C@@H](NC(=O)OC(C)(C)C)c4ccccc4)C(C)=C1C3(C)C)[C@]1(OC(C)=O)CO[C@@H]1C[C@@H]2O
The ID50 ratio of the first is lower: 2.3 for the first, 4.1 for the second.

First: CC(=O)O[C@H]1C(=O)[C@@]2(C)[C@H]([C@H](OC(=O)c3ccccc3)[C@]3(O)C[C@H](OC(=O)[C@H](O)[C@@H](NC(=O)C(C)(C)C)c4ccccc4)C(C)=C1C3(C)C)[C@]1(OC(C)=O)CO[C@@H]1C[C@@H]2O
Second: CCCCCC(=O)N[C@@H](c1ccccc1)[C@@H](O)C(=O)O[C@H]1C[C@@]2(O)[C@@H](OC(=O)c3ccccc3)[C@@H]3[C@]4(OC(C)=O)CO[C@@H]4C[C@H](O)[C@@]3(C)C(=O)[C@H](OC(C)=O)C(=C1C)C2(C)C
The ID50 ratio of the first is higher: 2.6 for the first, 0.4 for the second.

First: CC(=O)O[C@@]12CO[C@@H]1C[C@H](OC(=O)CCCC(=O)O)[C@@]1(C)C(=O)[C@H](OC(=O)CCCC(=O)O)C3=C(C)[C@@H](OC(=O)[C@H](O)[C@@H](NC(=O)OC(C)(C)C)c4ccccc4)C[C@@](O)([C@@H](OC(=O)c4ccccc4)[C@H]21)C3(C)C
Second: CC(=O)O[C@H]1C(=O)[C@@]2(C)[C@H]([C@H](OC(=O)c3ccccc3)[C@]3(O)C[C@H](OC(=O)[C@H](O)[C@@H](NC(=O)OCc4ccccc4)c4ccccc4)C(C)=C1C3(C)C)[C@]1(OC(C)=O)CO[C@@H]1C[C@@H]2O
The ID50 ratio of the first is lower: 2 for the first, 3.3 for the second.

First: CC(=O)O[C@H]1C(=O)[C@@]2(C)[C@H]([C@H](OC(=O)c3ccccc3)[C@]3(O)C[C@H](OC(=O)[C@@H](C)O)C(C)=C1C3(C)C)[C@]1(OC(C)=O)CO[C@@H]1C[C@@H]2O
Second: CC(=O)O[C@H]1C(=O)[C@@]2(C)[C@H]([C@H](OC(=O)c3ccccc3)[C@]3(O)C[C@H](OC(=O)[C@H](C)O)C(C)=C1C3(C)C)[C@]1(OC(C)=O)CO[C@@H]1C[C@@H]2O
The ID50 ratio of the first is lower: 5.6 for the first, 6.4 for the second.

Compared with `CCC(=O)O[C@H]1C[C@@]2(O)[C@@H](OC(=O)c3ccccc3)[C@@H]3[C@]4(OC(C)=O)CO[C@@H]4C[C@H](O)[C@@]3(C)C(=O)[C@H](OC(C)=O)C(=C1C)C2(C)C`, `CC(=O)O[C@H]1C(=O)[C@@]2(C)[C@H]([C@H](OC(=O)c3ccccc3)[C@]3(O)C[C@H](OC(=O)[C@H](O)CNC(=O)c4ccccc4)C(C)=C1C3(C)C)[C@]1(OC(C)=O)CO[C@@H]1C[C@@H]2O` is lower in ID50 ratio: 52 for the first, 5.6 for the second.

Going from `CC(=O)O[C@H]1C(=O)[C@@]2(C)[C@H]([C@H](OC(=O)c3ccccc3)[C@]3(O)C[C@H](OC(=O)[C@H](O)[C@@H](NC(=O)c4ccc(F)cc4)c4ccccc4)C(C)=C1C3(C)C)[C@]1(OC(C)=O)CO[C@@H]1C[C@@H]2O` to `CC(=O)O[C@H]1C(=O)[C@@]2(C)[C@H]([C@H](OC(=O)c3ccccc3)[C@]3(O)C[C@H](OC(=O)[C@H](O)[C@@H](NC(=O)c4ccoc4)c4ccccc4)C(C)=C1C3(C)C)[C@]1(OC(C)=O)CO[C@@H]1C[C@@H]2O`, the ID50 ratio falls from 1.2 to 0.4.

Going from `CC(=O)O[C@H]1C(=O)[C@@]2(C)[C@H]([C@H](OC(=O)c3ccccc3)[C@]3(O)C[C@H](OC(=O)[C@H](O)[C@@H](NC(=O)c4ccccc4C)c4ccccc4)C(C)=C1C3(C)C)[C@]1(OC(C)=O)CO[C@@H]1C[C@@H]2O` to `CC(=O)O[C@H]1C(=O)[C@@]2(C)[C@H]([C@H](OC(=O)c3ccccc3)[C@]3(O)C[C@H](OC(=O)C[C@H](NC(=O)c4ccccc4)c4ccccc4)C(C)=C1C3(C)C)[C@]1(OC(C)=O)CO[C@@H]1C[C@@H]2O`, the ID50 ratio rises from 1.9 to 21.2.

`CC(=O)O[C@H]1C(=O)[C@]2(C)[C@@H](OC(=O)c3ccc(C(=[N+]=[N-])C(F)(F)F)cc3)C[C@H]3OC[C@@]3(OC(C)=O)[C@H]2[C@H](OC(=O)c2ccccc2)[C@]2(O)C[C@H](OC(=O)[C@H](O)[C@@H](NC(=O)c3ccccc3)c3ccccc3)C(C)=C1C2(C)C` was tested, and the ID50 ratio was 3.4.
